Assays:
[1] = system: HSP72; test: Heat stress induced HSP72 production in 3T3 cells; format: cell-based, mouse; conditions: 10^−5 M
Description: From the applied cells the 3T3 and L-929 mouse fibroblasts were cultured in MEM medium and grew in monolayer, the U-937 human leukemia cells were maintained in RPMI-1640 medium, in suspension culture, while the HeLa human epithelial cells were cultured in DMEM medium and in monolayer form. Cell cultures were maintained as described in example 6.2 (a) with the difference that cells were cultured in the above mentioned culture mediums.
Experiments were carried out applying stress before and after the drug treatment. Stress was provoked by heat, by chemical agent, HgCl2 treatment. The test compounds were applied in the treatments at the 10^−5 M concentration.
The experiments on 3T3 cell applying heat stress were performed as described in the 6.2. (c) point of example 6, with the difference that stress was induced by a 30 min. exposure at 43° C. temperature and treatment with the test compounds was performed 15 min. before or 100 min. after the heat stress.
Immunodetection was carried out using the HSP72 specific SPA 810 (StressGene) primary and the horse-radish peroxidase conjugated A9044 (Sigma) secondary antibodies. Densitometric evaluation was performed by a LKB Ultrascan XL densitometer.

[2] = system: Hsp72; test: Heat stress induced hsp72 expression in rat testicular explant; format: cell-based; conditions: 10^−5 M, 15 min. before 43° C. 30 min.
Description: Testis of CFY rats weighing of 200 g were removed in sterile conditions and the released testicular tubuli were suspended in 10% fetal bovine serum containing MEM culture medium in that way that five ml suspension contained 50-100 mg tissue. The explants were incubated in 5% CO2 containing humidified air at 37° C. for one hour, then the cultures were treated with 10^−5 M concentration of the tested compounds. After a further incubation for 15 min. at 37° C., explants were exposed to heat shock at 43° C. for 30 min. The amount of the induced hsp72 was measured after a further 6 hours incubation at 37° C.

[3] = system: Male Sprague-Dawley rats; test: Protection against cardiac ischaemia: survival after 5 minutes coronary occlusion and reperfusion; format: in vivo, rat; conditions: i.v. 1 mg/kgbw, 5 min. before the occlusion; non-treated control 10
Description: Male Sprague-Dawley rats (380-450 g b.w.) were anaesthetized with sodiumpentobarbital (Nembutal 60 mg/kg body weight, i.p.) and artificially ventilated with room air (2 ml/100 g; 54 stroke/minutes) via tracheotomy. The right carotid artery was catheterized and connected to a pressure transducer (BPR-01, Stoelting) for the measurement of systemic arterial blood pressure (BP) by means of a preamplifier (Hg-02, Experimetria). Hydroxylamine derivatives disclosed in Example 5 were administered via the venous cannule to jugular vein (i.v.) and orally (p.o.). Heart rate (HR) was measured by a cardiotachometer (HR-01, Experimetria). The electrocardiogram (ECG standard lead II) was recorded on a devices recorder (MR-12, Medicor) by means of subcutaneous steel needles electrodes. The chest was opened by a left thoracotomy and the heart was exteriorized by a gentle pressure on the right side of the rib cage. A 4-0 silk suture was quickly placed under the main left coronary artery as described by Selye et al. (1960). The heart was carefully replaced in the chest and the animal left to recover. Rectal temperature was monitored and kept constant at 37 C. The experimental protocol was initiated with a 15 minute stabilization period during which the observation of a sustained blood pressure less than 70 mmHg and or the occurrence of anhythmia led to exclusion. Myocardial ischemia was induced with coronary occlusion for 5 minutes and reperfusion allowed for 10 minutes.
During the entire experiment BP, HR and ECG were continuously registered on a multiscriptor (R61-6CH, Medicor). Hydroxylamine derivatives, the tautomeric forms of which are represented by structures (I) and (II), were administered 5 to 60 minutes before the occlusion after i.v. and p.o. treatment, respectively. […]
The mean duration of ventricular tachycardia (VT) and/or ventricular fibrillation (VF) during the first 3 minutes of reperfusion was analyzed by one-way analysis of variance. The incidence of VF was analyzed using a chi-square test. […] The haemodynamic variables were analyzed using Student's “t”-test. The critical level of significance was set at p<0.05. All results were expressed as a means±S.E.M. Drugs were administered i.v. in a dose of 1 mg/kgbw 5 min. before the occlusion.
The hydroxylamine derivatives that are found to be particularly advantageous for protecting an animal against ischemic/reperfusion injury are listed below. Survival (%) indicates the percent of animals survived the effects of 5 minutes coronary occlusion.

[4] = treatment 15 min. before 30 min. 43° C. heat stress
[5] = treatment 100 min. after 30 min. 43° C. heat stress

Molecule	melting point	HSP72 level relative to the stress exposed control [1, 4]	Level of hsp72 relative to the stress exposed control [2]	Survival (%) [3]	HSP72 level relative to the stress exposed control [1, 5]
Cl.OC(CNC1CCCCC1)CON=C(Cl)c1cccc(C(F)(F)F)c1 (stereo not shown)	147 to 149.5 °C				
Cl.OC(CON=C(Cl)c1nccc2ccccc12)CN1CCCCC1 (stereo not shown)	168 to 172 °C				
Cl.N=C(NOCC(CN1CCCCC1)OC(=O)c1ccccc1Cl)c1cccnc1 (stereo not shown)	91 to 94 °C				
Cl.N=C(NOCCCN1CCCCC1)c1cccc(C(F)(F)F)c1	116 to 119 °C				
COc1ccc(CC(=N)NOCCCN2CCCCC2)cc1OC.Cl.Cl	207 to 209 °C				
CN1CCN(CCCONC(=N)c2cccnc2)CC1.Cl	127 to 130 °C				
Cl.Cl.N=C(NOCCCN1CCCCC1)c1ccccc1	207 to 209 °C				
Cl.Cl.N=C(NOCC(O)CN1CCCCC1)c1ccc([N+](=O)[O-])cc1 (stereo not shown)	184 to 189 °C				
Cl.Cl.N=C(NOCC(O)CN1CCCCC1)c1ccccc1[N+](=O)[O-] (stereo not shown)	200 to 208 °C				
Cl.O=[N+]([O-])c1ccc(C(Cl)=NOCC(O)CN2CCCCC2)cc1 (stereo not shown)	180 to 182 °C				
5,6-dihydro-3-(4-chloro-phenyl)-5-[N-methyl-piperidinium-1-yl]-methyl-4H-1,2,4-oxadiazine iodide		++ (51-100%)	+ (21-50%)		
CC(=NOCC(O)CNC(C)(C)C)c1cccc(C(F)(F)F)c1.CC(=O)O (stereo not shown) [1-{[3-(t-butylamino)-2-hydroxy-propoxy]-imino}-1-(m-trifluoromethyl-phenyl)-ethane acetate]		+++ (>100%)	+ (21-50%)		
CCN(CC)CC1CON=C(c2cccnc2)O1.Cl (stereo not shown) [3-(3-piridyl)-5-diethylaminomethyl-5,6-dihydro-6H-1,4,2-dioxazine hydrochloride]		+ (21-50%)	+ +		
CC(C)(C)NC1CON=C(c2cccnc2)O1 (stereo not shown) [3-(3-piridyl)-5-t-butylamino-5,6-dihydro-6H-1,4,2-dioxazine]		+ (21-50%)	0 (0 indicates that the treatment altered by ±20% the stress induced hsp72 level in the cells)		
Cl.O=[N+]([O-])c1cccc(C(Cl)=NOCC(O)CN2CCCCC2)c1 (stereo not shown) [Example 4, N-[2-hydroxy-3-(1-piperidinyl)propoxy]-3-nitro-benzenecarboximidoyl chloride monohydrochloride]			+ (21-50%)	50%	
Cl.O=[N+]([O-])c1ccccc1C(Cl)=NOCC(O)CN1CCCCC1 (stereo not shown) [Example 6, N-[2-hydroxy-3-(1-piperidinyl)propoxy]-2-nitro-benzenecarboximidoyl chloride monohydrochloride]		+++ (>100%)	+ +	100%	0 (0 indicates that the treatment altered by ±20% the stress induced hsp72 level in the cells)
CC(C)(C)NCC(O)CON=C(Cl)c1cccc(C(F)(F)F)c1.Cl (stereo not shown) [Example 9, N-[3-[(1,1-Dimethylethyl)amino]-2-hydroxypropoxy]-3-trifluoromethylbenzene-carboximidoyl chloride monohydrochloride]			+ (21-50%)	100%	
C[n+]1cccc(C(Cl)=NOCC(O)C[N+]2(C)CCCCC2)c1.[I-].[I-] (stereo not shown) [Example 16, N′-[2-hydroxy-3-(1-methyl-1-piperidinium-1-yl)propoxy]-N-methyl-pyridinium-3-carboximidoyl chloride diiodide]		+++ (>100%)		67%	+++ (>100%)
CCCCCCCCCCCCCCCC(=O)OC(CONC(=N)c1cccnc1)CN1CCCCC1.Cl (stereo not shown) [Example 22, N-[2-palmitoyloxy-3-(1-piperidinyl)propoxy]-3-pyridinecarboximidamide monohydrochloride]		+++ (>100%)	0 (0 indicates that the treatment altered by ±20% the stress induced hsp72 level in the cells)	100%	+ (21-50%)
CC(=O)Nc1ccc(C(N)=NOCC(O)CN2CCCCC2)cc1.Cl (stereo not shown) [Example 39]			0 (0 indicates that the treatment altered by ±20% the stress induced hsp72 level in the cells)	60%	
Cl.Cl.N=C(NOCC(O)CN1CCCCC1)c1nccc2ccccc12 (stereo not shown) [Example 46, N-[2-hydroxy-3-(1-piperidinyl)propoxy]-1-isoquinolinecarboximidoyl dihydrochloride]			+ + +		
CCN(CC)C(=NOCC(O)CN1CCCCC1)c1cccnc1.Cl (stereo not shown) [Example 51]		+++ (>100%)		75%	
O=C(NOCC(O)CN1CCCCC1)c1cccc2ccccc12 (stereo not shown) [Example 54, N-[2-hydroxy-3-(1-piperidinyl)propoxy]naphthalene-1-carboxamide]		+++ (>100%)		80%	++ (51-100%)
CCCCCCNC(=O)NOCC(O)CN1CCCCC1 (stereo not shown) [Example 58, N-hexyl-N′-[2-hydroxy-3-(1-piperidinyl)propoxy]-urea]			0 (0 indicates that the treatment altered by ±20% the stress induced hsp72 level in the cells)		+++ (>100%)
CCCCCCNC(=O)NOCCCN1CCCCC1 [Example 61, N-hexyl-N′-[3-(1-piperidinyl)propoxy]-urea]		++ (51-100%)	0 (0 indicates that the treatment altered by ±20% the stress induced hsp72 level in the cells)		
O=C(O)/C=C\C(=O)O.O[C@@H](CON=C(Cl)c1cccnc1)CN1CCCCC1 [Example 77, /R/(+)-N-[2-hydroxyl-3-(1-piperidinyl)propoxy]-3-pyridinecarboximidoyl chloride (Z)-2-butenedioate (1:1)]		+++ (>100%)		67%	
Cl.Cl.ClC(=NOCCCN1CCCCC1)c1cccnc1 [Example 78, N-(3-piperidino-1-propoxy)-3-pyridinecarboximidoyl chloride dihydrochloride]		+++ (>100%)	+ +	100%	
Cl.ClC(=NOCCCN1CCCCC1)c1cccs1 [N-[3-(1-piperidinyl)-propoxy]-tiophene-2-carboximidoyl-chloride-hydrochloride]			+ +		
CN(OCCCN1CCCCC1)C(=O)c1ccccc1.Cl [N-methyl-N-[3-(1-piperidinyl)-propoxy]-benzamide hydrochloride]		+ (21-50%)	+ (21-50%)		
CCN(CC)CCCON=C(Cl)c1cccnc1.Cl [O-(3-diethylamino-propoxy)-3-pyridine-carboximidoyl-chloride hydrochloride]		+++ (>100%)	0 (0 indicates that the treatment altered by ±20% the stress induced hsp72 level in the cells)		

Source: patent publication US7745465B2, “Method of enhancing cellular production of molecular chaperone, hydroxylamine derivatives useful for enhancing the chaperone production and the preparation thereof” (CytRx Corporation, priority 1995, dated 2010)
